Measured values published in patent publication US20210186925A1, “Applications Of YD1701 In Preparation Of Drugs For Treating ALDH1A3 High-Expression Tumors” (First Affiliated Hospital Third Military Medical University …, priority 2017, published 2021).

Tested on: orthotopic CRC transplanted tumors
Assay: orthotopic CRC transplanted tumors in mice
Format: in vivo
Conditions: YD1701 1 mg·kg^−1, 5-FU 10 mg·kg^−1, intraperitoneal, two weeks; three groups compared; FIG. 20
Experimental: To further assess the therapeutic potential of the YD1701, the inhibiting effects of the YD1701 and 5-FU(5-fluorouracil) on orthotopic CRC transplanted tumors in the mice are compared, and the experimental process is shown in FIG. 17. On the 20th day after the colons of mice of YD1701 are implanted with tumor micro-tissue blocks orthotopically, and the formation of the orthotopic transplanted tumors is determined by an in-vivo imaging system. […] Then, the determined mice with the orthotopic transplanted tumors are divided into three groups and subjected to intraperitoneal injection of YD1701 (1 mg·kg^−1), normal saline+DMSO and 5-FU (10 mg·kg^−1) for treatment for two weeks. The total survival time of the three groups of mice with the orthotopic transplanted tumors is compared.

## O=c1[nH]cc(F)c(=O)[nH]1 [5-FU, 5-fluorouracil]
  volume sizes of the tumors in situ in the colons: no obvious difference
